Data taken from US20230338378A1, “Methods of Administering Myosin Inhibitors” (MYOKARDIA, INC., priority 2022, published 2023).

How the values were obtained:
rats = assay: Oral animal toxicology at multiple dose levels; format: in vivo
Experimental: The safety of mavacamten has been evaluated in rats and dogs at multiple dose levels (0.06 to 10 mg/kg/day) orally. […] Plasma exposures (AUC) at the NOAEL in rats and dogs were 0.1 and 0.3 times, respectively, human exposure (AUC) at the MRHD.

CYP3A4 [1] = biological target: T1, CYP3A4 (Homo sapiens, UniProt P08684); assay: Metabolism through CYP enzymes
CYP2C19 = CYP2C19 (Homo sapiens, UniProt P33261); assay: Metabolism through CYP enzymes
[2] = test system: bacterial reverse mutation; assay: Bacterial reverse mutation test (Ames test); format: cell-based
[3] = test system: adults with symptomatic NYHA class II and III obstructive HCM; settings: phase 3 EXPLORER-HCM, oHCM patient population (Olivotto et al., 2020); cited from earlier work
healthy volunteers = assay: Cardiac electrophysiology (QTc) in healthy volunteers; format: in vivo, human
Excerpt: The mechanism of the QT prolongation effect is not known.

[4] = test system: adults with symptomatic NYHA class II and III obstructive HCM; assay: EXPLORER-HCM Phase 3, double-blind, randomized, placebo-controlled trial; format: in vivo, human
Experimental: The safety of MAVACAMTEN was evaluated in EXPLORER-HCM, a Phase 3, double-blind, randomized, placebo-controlled trial. Of the 251 adults with obstructive HCM, 123 patients were treated with MAVACAMTEN 2.5-15 mg daily and 128 were treated with placebo.
The efficacy of MAVACAMTEN was evaluated in EXPLORER-HCM (NCT-03470545) a Phase 3, double-blind, randomized, placebo-controlled, multicenter, international, parallel-group trial in 251 adults with symptomatic NYHA class II and III obstructive HCM, LVEF≥55%, and Valsalva LVOT peak gradient ≥50 mmHg at rest or with provocation.
Patients on dual therapy with beta blocker and calcium channel blocker treatment or monotherapy with disopyramide or ranolazine were excluded. Patients with a known infiltrative or storage disorder causing cardiac hypertrophy that mimicked obstructive HCM, such as Fabry disease, amyloidosis, or Noonan syndrome with left ventricular hypertrophy, were also excluded.
Patients were randomized in a 1:1 ratio to receive either a starting dose of 5 mg of MAVACAMTEN or placebo once daily for 30 weeks. Treatment assignment was stratified by baseline NYHA functional class, baseline use of beta blockers, and type of ergometer (treadmill or exercise bicycle).
All patients were initiated on MAVACAMTEN 5 mg (or matching placebo) once daily, and the dose was periodically adjusted to optimize patient response (decrease in LVOT gradient with Valsalva maneuver) and maintain LVEF≥50%. The dose was also informed by plasma concentrations of MAVACAMTEN.
The primary composite functional endpoint, assessed at 30 weeks, was defined as the proportion of patients who achieved either improvement of […] (pVO2) by ≥1.5 mL/kg/min plus improvement in NYHA class by at least 1 or improvement of pVO2 by ≥3.0 mL/kg/min plus no worsening in NYHA class.
The treatment effects of MAVACAMTEN on LVOT obstruction, functional capacity, and health status were assessed by change from baseline through Week 30 in post-exercise LVOT peak gradient, change in pVO2, proportion of patients with improvement in NYHA class, Kansas City Cardiomyopathy Questionnaire-23 (KCCQ-23) Clinical Summary Score (CSS), and Hypertrophic Cardiomyopathy Symptom Questionnaire (HCMSQ) Shortness of Breath (SoB) domain score.
Missing data were not imputed to summarize the baseline and change from baseline to Week 30 values. Difference in mean change from baseline between treatment groups was estimated using a mixed model for repeated measures.

CYP3A4 [5] = biological target: T1, CYP3A4; assay: In vitro CYP inhibition; format: in vitro ADME; settings: In Vitro Studies; clinically relevant concentrations
Solubility = format: physicochemical
CYP2C9 = CYP2C9 (Homo sapiens, UniProt P11712); assay: In vitro CYP inhibition; format: in vitro ADME; settings: In Vitro Studies; clinically relevant concentrations
CYP2C8 = CYP2C8 (Homo sapiens, UniProt P10632); assay: In vitro CYP inhibition; format: in vitro ADME; settings: In Vitro Studies
BSEP = BSEP (Homo sapiens, UniProt O95342); assay: In vitro transporter inhibition; format: in vitro ADME; settings: In Vitro Studies
male or female rats = assay: Reproductive toxicity studies (mating and fertility); format: in vivo, rat
pregnant rabbits = assay: Embryo-fetal development study in pregnant rabbits; format: in vivo, rabbit
Experimental: Visceral findings consisted of malformations of the great vessels (dilatation of pulmonary trunk and/or aortic arch). Skeletal malformations consisted of higher incidences of fused sternebrae at ≥1.2 mg/kg/day. Plasma exposure (AUC) at the no-effect dose for embryo-fetal development in rabbits is 0.4 times the exposure in humans at the MRHD.

[6] = Baseline to Week 30, vs Placebo

T1 sequence (P08684 whole entry): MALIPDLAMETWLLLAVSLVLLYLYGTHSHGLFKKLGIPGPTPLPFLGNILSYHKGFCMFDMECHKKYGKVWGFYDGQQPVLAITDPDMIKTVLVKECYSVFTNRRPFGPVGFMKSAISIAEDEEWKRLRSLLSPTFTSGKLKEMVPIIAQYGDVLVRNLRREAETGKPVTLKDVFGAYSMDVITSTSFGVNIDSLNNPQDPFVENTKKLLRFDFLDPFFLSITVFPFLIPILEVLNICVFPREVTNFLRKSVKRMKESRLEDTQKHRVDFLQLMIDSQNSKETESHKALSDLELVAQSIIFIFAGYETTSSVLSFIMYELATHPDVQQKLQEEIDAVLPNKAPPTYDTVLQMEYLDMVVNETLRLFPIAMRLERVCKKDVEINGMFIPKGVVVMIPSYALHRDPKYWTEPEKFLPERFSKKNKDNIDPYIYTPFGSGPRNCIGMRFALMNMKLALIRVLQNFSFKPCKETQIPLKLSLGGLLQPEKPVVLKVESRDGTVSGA
Chain of CYP2C8 (P10632 whole entry): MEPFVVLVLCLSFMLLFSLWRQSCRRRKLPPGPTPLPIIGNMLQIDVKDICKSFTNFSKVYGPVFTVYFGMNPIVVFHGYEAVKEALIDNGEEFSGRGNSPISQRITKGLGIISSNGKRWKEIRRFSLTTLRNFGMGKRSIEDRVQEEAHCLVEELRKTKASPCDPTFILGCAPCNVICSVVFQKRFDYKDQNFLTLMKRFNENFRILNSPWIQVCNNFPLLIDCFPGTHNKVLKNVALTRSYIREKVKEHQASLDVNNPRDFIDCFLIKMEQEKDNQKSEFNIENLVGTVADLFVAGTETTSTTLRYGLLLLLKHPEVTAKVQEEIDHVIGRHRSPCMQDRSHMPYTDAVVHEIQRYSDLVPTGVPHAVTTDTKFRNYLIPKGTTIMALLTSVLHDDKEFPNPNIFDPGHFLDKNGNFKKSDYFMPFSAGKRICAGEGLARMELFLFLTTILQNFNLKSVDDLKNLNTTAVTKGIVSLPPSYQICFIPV
Chain of CYP2C9 (P11712 whole entry): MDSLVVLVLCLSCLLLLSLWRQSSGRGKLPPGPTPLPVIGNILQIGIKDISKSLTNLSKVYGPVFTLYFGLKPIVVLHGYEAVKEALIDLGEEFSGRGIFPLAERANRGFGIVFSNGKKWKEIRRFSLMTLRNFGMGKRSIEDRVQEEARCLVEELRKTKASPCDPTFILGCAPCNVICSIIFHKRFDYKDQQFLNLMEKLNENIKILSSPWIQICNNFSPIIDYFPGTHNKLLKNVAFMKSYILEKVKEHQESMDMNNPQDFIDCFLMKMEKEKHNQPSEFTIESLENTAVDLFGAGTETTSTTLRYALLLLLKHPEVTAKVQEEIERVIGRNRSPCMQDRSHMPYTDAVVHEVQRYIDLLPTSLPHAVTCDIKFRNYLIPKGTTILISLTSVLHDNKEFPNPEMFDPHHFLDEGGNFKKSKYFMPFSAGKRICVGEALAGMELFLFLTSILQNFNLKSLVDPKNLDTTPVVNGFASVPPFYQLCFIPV
Chain of CYP2C19 (P33261 whole entry): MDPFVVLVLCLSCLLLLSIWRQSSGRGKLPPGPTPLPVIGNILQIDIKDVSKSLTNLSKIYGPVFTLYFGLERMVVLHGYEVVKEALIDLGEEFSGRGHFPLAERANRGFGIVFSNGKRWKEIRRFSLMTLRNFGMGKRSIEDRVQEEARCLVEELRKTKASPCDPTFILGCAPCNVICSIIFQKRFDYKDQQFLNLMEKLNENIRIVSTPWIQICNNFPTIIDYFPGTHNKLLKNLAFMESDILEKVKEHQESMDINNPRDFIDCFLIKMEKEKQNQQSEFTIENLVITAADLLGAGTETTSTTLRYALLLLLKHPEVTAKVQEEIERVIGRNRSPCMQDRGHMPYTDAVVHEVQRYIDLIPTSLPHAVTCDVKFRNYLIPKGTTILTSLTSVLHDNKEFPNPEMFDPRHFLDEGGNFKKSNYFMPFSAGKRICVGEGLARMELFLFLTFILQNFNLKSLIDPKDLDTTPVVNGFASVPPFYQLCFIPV
Chain of BSEP (O95342 whole entry): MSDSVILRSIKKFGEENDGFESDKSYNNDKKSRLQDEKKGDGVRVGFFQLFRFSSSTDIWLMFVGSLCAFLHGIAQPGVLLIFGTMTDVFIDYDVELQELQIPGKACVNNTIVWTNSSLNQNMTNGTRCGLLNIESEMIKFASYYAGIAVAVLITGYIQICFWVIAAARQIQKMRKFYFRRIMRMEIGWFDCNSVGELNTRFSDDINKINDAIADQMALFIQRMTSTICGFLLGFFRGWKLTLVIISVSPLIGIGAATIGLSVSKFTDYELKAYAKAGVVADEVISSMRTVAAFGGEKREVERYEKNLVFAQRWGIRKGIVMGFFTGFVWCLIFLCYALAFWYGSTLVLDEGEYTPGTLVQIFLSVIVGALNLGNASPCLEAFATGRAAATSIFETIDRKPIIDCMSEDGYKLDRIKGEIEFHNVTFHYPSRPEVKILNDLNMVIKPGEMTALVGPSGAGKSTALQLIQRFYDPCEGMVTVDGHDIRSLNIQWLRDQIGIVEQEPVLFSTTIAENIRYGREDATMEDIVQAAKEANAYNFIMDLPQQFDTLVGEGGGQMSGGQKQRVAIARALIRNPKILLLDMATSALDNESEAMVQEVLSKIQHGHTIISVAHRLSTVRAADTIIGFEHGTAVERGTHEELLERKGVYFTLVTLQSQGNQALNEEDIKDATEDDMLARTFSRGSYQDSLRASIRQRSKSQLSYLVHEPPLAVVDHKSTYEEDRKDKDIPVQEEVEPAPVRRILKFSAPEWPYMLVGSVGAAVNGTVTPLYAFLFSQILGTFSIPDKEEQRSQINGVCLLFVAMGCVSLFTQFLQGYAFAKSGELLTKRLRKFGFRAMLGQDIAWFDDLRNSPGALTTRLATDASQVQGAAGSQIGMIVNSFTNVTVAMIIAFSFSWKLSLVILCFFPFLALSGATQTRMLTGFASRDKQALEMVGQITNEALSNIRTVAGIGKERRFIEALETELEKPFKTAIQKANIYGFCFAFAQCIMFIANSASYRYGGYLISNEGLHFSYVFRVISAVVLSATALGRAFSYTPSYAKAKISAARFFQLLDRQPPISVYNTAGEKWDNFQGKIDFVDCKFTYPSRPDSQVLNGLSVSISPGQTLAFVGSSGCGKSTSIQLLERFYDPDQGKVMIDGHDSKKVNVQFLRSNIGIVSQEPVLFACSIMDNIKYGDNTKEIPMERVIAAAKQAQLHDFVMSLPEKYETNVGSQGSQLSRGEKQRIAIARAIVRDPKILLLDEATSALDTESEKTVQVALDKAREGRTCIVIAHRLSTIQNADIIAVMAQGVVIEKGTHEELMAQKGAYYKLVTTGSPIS

SMILES: CC(C)n1c(=O)cc(N[C@@H](C)c2ccccc2)[nH]c1=O [mavacamten, (S)-3-Isopropyl-6-((1-phenylethyl)amino)pyrimidine-2,4(1H,3H)-dione]
- Other findings (rats): cardiac osseous metaplasia
- Plasma exposure (AUC) at the NOAEL vs human exposure (AUC) at the MRHD (rats): 0.1 times
- heart weights (rats): increased heart weights
- Noted toxicities (rats; 0.06 to 10 mg/kg/day orally): echocardiographic findings, reduction in systolic function, cardiac dilation, and death
- metabolized through CYP3A4 (CYP3A4 [1]): 18%
- metabolized through CYP2C19 (CYP2C19): 74%
- genotoxicity [2]: not genotoxic
- LVOT gradients, symptoms, exercise performance and health status [3]: effective in reducing LVOT gradients and improving symptoms, exercise performance and health status
- QTc interval (healthy volunteers; healthy volunteers, multiple doses up to 25 mg once daily): concentration-dependent increase in the QTc interval
- QTc interval (healthy volunteers; similar exposures during single-dose studies): No acute QTc changes
- Change from baseline pVO2 ≥1.5 mL/kg/min and decreased NYHA ([4]; 30 Weeks, N = 123): 41 (33%)
- Change from baseline pVO2 ≥3 mL/kg/min and NYHA not increased ([4]; 30 Weeks, N = 123): 29 (23%)
- Total responders (primary endpoint) ([4]; 30 Weeks, N = 123): 45 (37%)
- Change from baseline pVO2 ≥1.5 mL/kg/min and decreased NYHA, Difference (95% CI) ([4]; 30 Weeks, vs Placebo): 19% (9, 30)
- Change from baseline pVO2 ≥3 mL/kg/min and NYHA not increased, Difference (95% CI) ([4]; 30 Weeks, vs Placebo): 13% (3, 22)
- Total responders, Difference (95% CI) ([4]; 30 Weeks, vs Placebo): 19% (9, 30)
- Number (%) with NYHA Class improved ≥1 ([4]; Baseline to Week 30, N = 123): 80 (65%)
- Post-Exercise LVOT gradient, mean (SD) change ([4]; Baseline to Week 30, N = 123): −47 (40) mmHg
- pVO2, mean (SD) change ([4]; Baseline to Week 30, N = 123): 1.4 (3.1) mL/kg/min
- NYHA Class improved ≥1, Difference (95% CI) [4, 6]: 34% (22%, 45%)
- Post-Exercise LVOT gradient, Difference (95% CI) [4, 6]: −35 (−43, −28) mmHg
- pVO2, Difference (95% CI) [4, 6]: 1.4 (0.6, 2.1) mL/kg/min
- Syncope leading to discontinuation, patients ([4]; EXPLORER-HCM): 0.8%
- patients in whom reductions in LVEF to <50% were asymptomatic ([4]; EXPLORER-HCM): 3 of the 7
- patients who temporarily interrupted their dose due to LVEF<50% ([4]; EXPLORER-HCM): Three
- patients with reversible reductions in LVEF to <50% while on treatment, n (%) ([4]; EXPLORER-HCM): 7 (6%)
- Adverse reaction: dizziness, patients ([4]; EXPLORER-HCM, 2.5-15 mg daily): 27%
- Adverse reaction: syncope, patients ([4]; EXPLORER-HCM, 2.5-15 mg daily): 6%
- mean (SD) change from baseline in Valsalva LVOT gradient ([4]; Week 30): −49 (34) mmHg
- mean (SD) change from baseline in resting LVOT gradient ([4]; Week 30): −39 (29) mmHg
- proportion of patients who met the primary endpoint ([4]; Week 30): 37%
- secondary endpoints (post-exercise LVOT peak gradient, pVO2, NYHA class, KCCQ-23 CSS, HCMSQ SoB) ([4]; Week 30): greater improvement compared to the placebo group across all secondary endpoints
- HCMSQ SoB, Difference, LS Mean (95% CI) ([4]; Week 30, vs Placebo): −2 (−2, −1)
- KCCQ-23 CSS, Difference, LS Mean (95% CI) ([4]; Week 30, vs Placebo): 9 (5, 13)
- reduction in NT-proBNP greater than for placebo ([4]; Week 30 compared with baseline): 80%
- LVEF following interruption in patients with LVEF <50% ([4]; all 7 patients): LVEF recovered
- Subgroup analysis of the primary composite functional endpoint ([4]; all subgroups analyzed (FIG. 17)): consistently favored MAVACAMTEN across all subgroups analyzed
- benefit in patients on background beta blocker therapy compared to those who were not ([4]; attenuated improvement in pVO2): smaller
- KCCQ-23 PL, Change from Baseline to Week 30, Mean (SD) ([4]; in vivo): 15 (17)
- KCCQ-23 TSS, Change from Baseline to Week 30, Mean (SD) ([4]; in vivo): 12 (15)
- KCCQ-23 CSS, Change from Baseline to Week 30, Mean (SD) ([4]; n = 99): 14 (14)
- HCMSQ SoB, Change from Baseline to Week 30, Mean (SD) ([4]; n = 108): −3 (3)
- mean (SD) absolute change from baseline in LVEF ([4]; over the 30-week treatment period): −4% (8)
- inhibition of CYP3A4 (CYP3A4 [5]): not an inhibitor
- solubility (Solubility; DMSO and NMP): freely soluble
- solubility (Solubility; methanol and ethanol): sparingly soluble
- solubility (Solubility; water and aqueous buffers at pH 2-10): practically insoluble
- inhibition of CYP2C9 (CYP2C9): not an inhibitor
- inhibition of CYP2C8 (CYP2C8): does not inhibit
- inhibition of BSEP (BSEP): does not inhibit
- effects on the viability and fertility of offspring (male or female rats; dams dosed up to 1.5 mg/kg/day): no evidence of effects
- effects on mating and fertility (male or female rats; male or female rats, doses up to 1.2 mg/kg/day): no evidence of effects
- Plasma exposure (AUC) at the highest dose tested (male or female rats; rats): the same as in humans at the MRHD
- embryo-fetal findings (pregnant rabbits; pregnant rabbits, oral, period of organogenesis, doses of 1.2 mg/kg/day and higher): fetal malformations (visceral and skeletal) were increased
- Plasma exposure (AUC) at the no-effect dose for embryo-fetal development vs exposure in humans at the MRHD (pregnant rabbits; rabbits): 0.4 times
